Test results as given in the NIST ThermoML archive (doi:10.1021/je400830w).
Numbers after ± are expanded uncertainties.

Assays:
[1] = 100 kPa, Liquid; for viscosity: Falling or rolling sphere viscometry; for mass density: Vibrating tube method
[2] = refractive index (Na D-line) (dimensionless); settings: 100 kPa, Liquid, Standard Abbe refractometry

NCCO [2-aminoethan-1-ol]
Settings	mass density, [1] [kg/m3]	refractive index, [2]	viscosity, [1] [mPa·s]
298.15 K	1012.38 ± 0.25	1.45406 ± 0.00037	18.89 ± 0.18
303.15 K	1009.35 ± 0.25	1.45241 ± 0.00037	15.11 ± 0.14
313.15 K	1002.16 ± 0.24	1.449 ± 0.001	10.03 ± 0.094
323.15 K	994.4 ± 0.24	1.44522 ± 0.00037	6.983 ± 0.065
333.15 K	986.24 ± 0.24	1.44198 ± 0.00037	4.972 ± 0.047
